Test results from ChEMBL document CHEMBL5154651, “Substituent effect of benzyl moiety in nitroquinoxaline small molecules upon DNA binding: Cumulative destacking of DNA nucleobases leading to histone eviction” (Eur J Med Chem, 2022).
The source made the active and inactive calls. No cut-off for these calls is given here.

Experiments:
GC rich DNA [1] = assay: Displacement of Ethidium bromide from native ds-GC12 short DNA (unknown origin) by Stern-Volmer quenching plot analysis; assay type: nucleic-acid assay
DNA [2] = assay: Induction of GC-rich pYUB12 plasmid DNA (unknown origin) unwinding assessed as DNA structural changes at DNA base-pair to compound ratio of 1:6 incubated for 16 hrs by mobility shift assay; assay type: nucleic-acid assay
GC rich DNA [3] = assay: Disruption of native ds-GC12 DNA (unknown origin) base stacking interaction assessed as decrease in positive peak intensity at 283 nm at DNA base-pair to compound ratio of 1:4 by circular dichroism analysis; assay type: nucleic-acid assay
GC rich DNA [4] = assay: Disruption of native ds-GC12 DNA (unknown origin) base stacking interaction assessed as appearance of ICD at 325 nm by circular dichroism analysis; assay type: nucleic-acid assay
DNA [5] = assay: Induction of GC-rich pYUB12 plasmid DNA (unknown origin) unwinding assessed as complete conformational change as condensed form at DNA base-pair to compound ratio of 1:2 incubated for 16 hrs by mobility shift assay; assay type: nucleic-acid assay
[6] = Induction of histone eviction from single assembled nucleosome (unknown origin) assessed as reduction in nucleosome band intensity at 75 uM incubated for 4 hrs by silver staining based gel electrophoresis assay
DNA [7] = assay: Induction of GC-rich pYUB12 plasmid DNA (unknown origin) unwinding assessed as complete structural change with DNA condensation by measuring increase in condensed DNA band intensity at DNA base-pair to compound ratio of 1:1.5 incubated for 16 hrs by mobility shift assay; assay type: nucleic-acid assay

## COc1ccc(CNc2nc3ccc([N+](=O)[O-])cc3nc2NCCCN(C)C)cc1
GC rich DNA [1]
  KSV: < 1 10^4/M
DNA [2]
  Activity: Active
GC rich DNA [3]
  Activity: Active

## CN(C)CCCNc1nc2cc([N+](=O)[O-])ccc2nc1NCc1ccccc1
GC rich DNA [1]
  KSV: < 1 10^4/M
DNA [2]
  Activity: Active
GC rich DNA [3]
  Activity: Active

## CN(C)CCCNc1nc2cc([N+](=O)[O-])ccc2nc1NCc1ccco1
GC rich DNA [1]
  KSV: < 0.3 10^4/M

## CN(C)CCCNc1nc2cc([N+](=O)[O-])ccc2nc1NCc1ccncc1
GC rich DNA [1]
  KSV: < 0.3 10^4/M

## CN(C)CCCNc1nc2cc([N+](=O)[O-])ccc2nc1NCc1ccc([N+](=O)[O-])cc1
GC rich DNA [1]
  KSV: < 1 10^4/M
DNA [2]
  Activity: Active
GC rich DNA [3]
  Activity: Active

## CN(C)CCCNc1nc2cc([N+](=O)[O-])ccc2nc1NCc1ccc(N)cc1
GC rich DNA [1]
  KSV: < 1 10^4/M
DNA [2]
  Activity: Active
GC rich DNA [3]
  Activity: Active

## CN(C)CCCNc1nc2cc([N+](=O)[O-])ccc2nc1NCc1ccc(C(F)(F)F)cc1
GC rich DNA [4]
  Activity: Active
GC rich DNA [1]
  KSV: 4.6 10^4/M
DNA [5]
  Activity: Active
[6]
  Activity: Active
DNA [7]
  Activity: Active

## CN(C)CCCNc1nc2cc([N+](=O)[O-])ccc2nc1NCc1ccc(F)cc1
GC rich DNA [1]
  KSV: 1.26 10^4/M
GC rich DNA [3]
  Activity: Active
